Laboratory results: EP0336326A2, “3-Aminodihydrothiophene-2-one peptide derivatives, processes for the preparation and therapeutic use” (POLI INDUSTRIA CHIMICA S.p.A., priority 1988, dated 1989)
Like-named read-outs stand apart in the source and are kept apart here.

Legend:
[1] = test system: 4% mucin suspension; assay: in vitro mucolytic activity test with a 4% mucin suspension; type: biochemical; details: equimolar concentrations (0.00625 M), after hydrolysis with rat serum; 6250 µM
[2] = mucolytic-expectorant activity: test of fluorescein elimination from the respiratory tract; type: in vivo; details: po; 0.5 mM/kg orally; in comparison with the controls; read-out: increase in the dye excretion
[3] = test system: hystamine shock; assay: antibronchospastic activity: histamine shock test; type: in vivo; details: Cavia porcellus, ip; guinea pig; 0.25 mM/kg i.p.; compared with the basal values; read-out: increase resistance times against shock
Protocol: The antibronchospastic activity of the compounds of the present invention was evaluated by the hystamine shock test in guinea pig (P. C. Braga et al., Min. Pneumol., 23, 447, 1984).

[4] = test system: elastase-induced emphysema; assay: antiemphysema activity: pancreatic elastase induced emphysema, mean linear intercept (MLI) morphometry; type: in vivo; details: hamster; 0.25 mM/kg per os, during 4 weeks
Source text: The compounds of the present invention also display an interesting antiemphysema activity in the hamster (P.J. Stone et al., Amer. Rev. Respir. Dis., 124, 56, 1981). Emphysema induced by pancreatic elastase is morphometrically measured by evaluating, in µm, the mean linear intercept (MLI) (J. Kleinerman et al., Amer. Rev. Respir. Dis., 121, 381, 1980).

[5] = test system: CCl4intoxication; assay: hepatoprotective activity: CCl4 intoxication test; type: in vivo; details: ip, rat, 0.25 mM/kg i.p.
Protocol: The hepatoprotective activity was determined by the CCl4intoxication test in the rat (E. C. Ferreyra et al., Toxic. Appl. Pharmacol., 27, 558, 1974).

[6] = test system: Bordetella pertussis induced edema; assay: antiinflammatory activity: Bordetella pertussis induced edema test; type: in vivo; details: in Rattus norvegicus, po, 24 h, read-out: reduce the edema after 24 hours
Protocol: The antiinflammatory activity was evaluated by the test of Bordetella pertussis induced edema in the rat (F. Capasso, Agents and Actions, 11, 741, 1981).

[7] = in comparison with intoxicated controls, read-out: reduce serum GOT
[8] = in comparison with the intoxicated controls, read-out: reduce serum GPT

Row | Structure (SMILES) | reductions in viscosity [1] [%] | change in vivo at 500 µM, 500 µmol/kg [2] [%] | change in vivo at 250 µM, 250 µmol/kg [3] [%] | reduce the MLI increase in elastase-induced emphysema [4] [%] | inhibition in vivo at 250 µM, 250 µmol/kg [5, 7] [%] | inhibition in vivo at 250 µM, 250 µmol/kg [5, 8] [%] | inhibition in vivo at 500 µM, 500 µmol/kg [6] [%]
1 | CC(SC(=O)c1cccs1)C(=O)NCC(=O)NC1CCSC1=O (racemic) [Compound III] | 13.1 | 71.3 | 186 | 32.7 | 54.7 | 54.1 | 41.8
2 | CC(S)C(=O)NCC(=O)NC1CCSC1=O (stereo not shown) [Compound II, 3-[(2-thiolpropionyl)glycyl]aminodihydrothiophene-2-one] | 13.4 | 72 | 190 | 30.6 | 55.8 | 52.3 | 42.1
3 | CC(=O)N[C@@H](CS)C(=O)N[C@H]1CCSC1=O [Compound IV, L-3-[(N-acetylcysteinyl)]aminodihydrothiophene-2-one] | 12.8 | 68.5 | 180 | 31.8 | 52.7 | 48.7 | 36.7
4 | CC(=O)N[C@@H](CSC(=O)c1cccs1)C(=O)NC1CCSC1=O (stereo partly drawn) [Compound V, 3-(N-acetyl-S-(2-thenoyl)-cysteinyl)aminodihydrothiophene-2-one] | 12.4 | 67.6 | 181 | 32.7 | 56.1 | 47.6 | 35.8
5 | CC(S)C(=O)NCC(=O)N1CSC[C@H]1C(=O)NC1CCSC1=O (stereo partly drawn) [Compound VI, 3-{L-3-[(2-thiolpropionyl)glycyl]thiazolidin-4-carbonyl} aminodihydrothiophene-2-one] | 13.4 | 74.1 | 191 | 35.6 | 58.5 | 52.8 | 38.7
6 | CC(S)C(=O)NCC(=O)N1CSC[C@H]1C(=O)O (stereo partly drawn) [Compound VII, L-3-[(2-thiolpropionyl)glycyl]thiazolidin-4-carboxylic acid] | 13.6 | 71.9 | 188 | 34.9 | 59.3 | 51.9 | 37.9
7 | CC(SC(=O)c1cccs1)C(=O)NCC(=O)N1CSC[C@H]1C(=O)NC1CCSC1=O (stereo partly drawn) [Compound VIII, 3-{L-3-[(2-thenoylthiopropionyl)glycyl]thiazolidin-4-carbonyl}aminodihydrothiophene-2-one] | 13.2 | 70.8 | 188 | 35.4 | 60.1 | 54.1 | 38.1
8 | CC(=O)N[C@@H](CS)C(=O)O [N-acetyl-cysteine, reference compound] | 10.8 | 45.6 | 168 |  | 39.9 | 37.8 | 23.2
9 | CC(S)C(=O)NCC(=O)O (stereo not shown) [tiopronin, reference compound] | 11.5 | 55.8 | 166 |  | 42.2 | 39.8 | 28.6
